Test results taken from US20110092476A1, “Bicycloheteroaryl compounds as P2X7 modulators and uses thereof” (Renovis, Inc., priority 2006, published 2011).
Converted amounts (≈) assume the structure as drawn. Where two headings read alike, the source gives them in different places.

Legend:
P2X7 receptor = target: T1, P2X7 receptor (Homo sapiens, UniProt Q99572); assay: IL-1β release assay in differentiated THP-1 cells stimulated with BzATP (Example 9); format: cell-based
T1 construct: host or cells: THP-1 cells differentiated with LPS and IFN-γ
T1 sequence (Q99572 1-595): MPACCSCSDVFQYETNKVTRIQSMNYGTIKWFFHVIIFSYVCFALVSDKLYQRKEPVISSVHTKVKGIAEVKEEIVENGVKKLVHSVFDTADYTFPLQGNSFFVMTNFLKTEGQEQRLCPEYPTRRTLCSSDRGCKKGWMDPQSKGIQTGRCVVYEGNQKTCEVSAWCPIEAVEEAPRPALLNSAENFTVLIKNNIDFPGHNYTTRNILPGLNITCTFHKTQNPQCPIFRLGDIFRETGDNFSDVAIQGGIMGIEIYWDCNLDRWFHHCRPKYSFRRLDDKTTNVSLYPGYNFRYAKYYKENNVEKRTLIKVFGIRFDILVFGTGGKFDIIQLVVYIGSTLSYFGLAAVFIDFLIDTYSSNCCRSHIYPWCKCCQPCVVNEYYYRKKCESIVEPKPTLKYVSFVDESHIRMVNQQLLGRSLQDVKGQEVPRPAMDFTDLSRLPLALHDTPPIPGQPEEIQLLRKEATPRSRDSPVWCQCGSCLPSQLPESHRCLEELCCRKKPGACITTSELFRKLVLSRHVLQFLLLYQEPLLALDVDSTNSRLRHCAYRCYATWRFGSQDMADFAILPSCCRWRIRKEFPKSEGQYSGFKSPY
Outline: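 IC50 derived by four-parameter logistic fit of percent inhibition of IL-1β release (ELISA, background-adjusted). Release triggered by 45 min BzATP at 250 uM final after 30 min compound pretreatment of THP-1 cells previously differentiated 16 h (LPS, IFN-γ, 100 ng/mL each) and re-primed 2 h with LPS.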

[1] = Pharmacokinetic evaluation following intravenous and oral administration in rats (oral bioavailability); format: in vivo, rat; details: male Sprague-Dawley rats, PO 1 to 5 mg/kg vs IV 1 mg/kg, AUCinf dose-normalized
Experimental: Male Sprague-Dawley rats are acclimatized for at least 24 hours prior to experiment initiation. During acclimation period, all animals receive food and water ad libitum. However, food but not water is removed from the animal's cages at least 12 hours before initiation of the experiment. During the first 3 hours of experimentation, the animals receive only water ad libitum. At least three animals each are tested for intravenous and oral dosage. For intravenous formulation, compounds were dissolved (0.25 to 1 mg/mL) in a mixture of 3% dimethyl sulfoxide, 40% PEG 400 and the rest percentage of 40% Captisol in water (w/v). The animals are weighed before dosing. The determined body weight is used to calculate the dose volume for each animal.
Dose volume (mL/kg)=1 mg/kg/formulation concentration (mg/mL)
In instances where the formulation concentrations were less than 0.5 mg/mL, the dosing volume is about 2 mL/kg.
PO rats are typically dosed through oral gavage following the same dose volume formula as IV to achieve a dose level of 1 to 5 mg/kg. […] About 250 uL of blood is obtained at each time point from the animal. Equal volumes of 0.9% normal saline are replaced to prevent dehydration. The whole blood samples are maintained on ice until centrifugation. Blood samples are then centrifuged at 14,000 rpm for 10 minutes at 4° C. and the upper plasma layer transferred into a clean vial and stored at −80° C. The resulting plasma samples are then analyzed by liquid chromatography-tandem mass spectrometry. Following the measurement of plasma samples and dosing solutions, plasma concentration-time curve is plotted. Plasma exposure is calculated as the area under the concentration-time curve extrapolated to time infinite (AUinf). The AUCinf is averaged and the oral bioavailability (% F) for individual animal is calculated as:
AUCinf (PO)/AUCinf (IV), normalized to their respective dose levels. The % F is reported as the mean % F of all animals dosed orally with the compound of the invention at the specified level (see Table 4 below).
For the purpose of Table 4, oral bioavailability of each compound is expressed as follows: […]

[2] = Determination of aqueous (kinetic) solubility; format: physicochemical; details: aqueous buffer, kinetic from dmso stock, buffer pH 7.4
Experimental: The mixture was vortexed for 1 hour and equilibrated overnight at room temperature. The mixture was filtered through a saturated filter and the filtrate was analyzed by LC/MS/MS.
For the purpose of Table 5, solubility of each compound is expressed as follows: […]

[3] = Half-life in human liver microsomes (HLM); details: pH 7.4
Experimental: Test compounds (1 μM) are incubated with 3.3 mM MgCl2 and 0.78 mg/mL HLM (HL101) in 100 mM potassium phosphate buffer (pH 7.4) at 37° C. on the 96-deep well plate. The reaction mixture is split into two groups, a non-P450 and a P450 group. NADPH is only added to the reaction mixture of the P450 group. An aliquot of samples of P450 group is collected at 0, 10, 30, and 60 min time point, where 0 min time point indicated the time when NADPH is added into the reaction mixture of P450 group. […] Collected aliquots are extracted with acetonitrile solution containing an internal standard. […] The compound concentration in supernatant is measured by LC/MS/MS system.
The half-life value is obtained by plotting the natural logarithm of the peak area ratio of compounds/internal standard versus time. The slope of the line of best fit through the points yields the rate of metabolism (k). This is converted to a half-life value using following equations:

[4] = 0.3 μM compound, differentiated THP-1 cells, BzATP 250 uM, "+" symbols, read-out: IL-1β % Inhib. @ 0.3 or 0.1 uM

| SMILES | inhibition at 0.3 µM (P2X7 receptor; 0.3 μM compound (symbols +), differentiated THP-1 cells, BzATP 250 uM, read-out: IL-1β % Inhib. @ 0.3 or 0.1 uM) [%] | Oral Bioavailability F (%) [1] | solubility [2] [µM] | half-life at 1 μM [3] [h] | inhibition at 0.3 µM (P2X7 receptor; [4]) [%] | inhibition at 0.3 µM (P2X7 receptor; differentiated THP-1 cells, BzATP 250 uM, "+" symbols = compound at 0.3 μM, read-out: IL-1β % Inhib. @ 0.3 or 0.1 uM) [%] | IC50 (P2X7 receptor; THP-1 cells, BzATP 250 uM, IL-1β by ELISA) [nM] | inhibition at 0.3 µM (P2X7 receptor; THP-1, read-out: IL-1β % Inhib. @ 0.3 or 0.1 uM) [%] |
| --- | --- | --- | --- | --- | --- | --- | --- | --- |
| O=C(Cc1ccc(Cl)c(C(F)(F)F)c1)Nc1cccc2c(=O)n(C(CO)CO)ccc12 [Compound 81, 2-(4-Chloro-3-trifluoromethyl-phenyl)-N-[2-(2-hydroxy-1-hydroxymethyl-ethyl)-1-oxo-1,2-dihydro-isoquinolin-5-yl]-acetamide] | > 76 | + (0-25% F) | > 75 | 0.72 |  |  |  |  |
| C[C@H](C(=O)Nc1cccc2c(=O)n([C@H](C)C(N)=O)ccc12)c1ccc(Cl)c(Cl)c1 [Compound 268] |  | ++ (26-50% F) | 51 to 75 (≈ 22 to 32.4 µg/mL) | 1.36 | > 76 |  |  |  |
| CC(C(=O)Nc1cccc2c(=O)n([C@H](C)C(N)=O)ccc12)c1ccc(Cl)c(Cl)c1 (some centres unmarked) [Compound 254] |  | + (0-25% F) | 26 to 50 (≈ 11.2 to 21.6 µg/mL) | 1.46 | > 76 |  |  |  |
| CC(C(=O)Nc1cccc2c(=O)n([C@H](C)C(N)=O)ccc12)c1ccc(Cl)c(C(F)(F)F)c1 (stereo partly drawn) [Compound 267, (R)-2-{5-[2-(4-Chloro-3-trifluoromethyl-phenyl)-propionylamino]-1-oxo-1H-isoquinolin-2-yl}-propionamide] |  | ++ (26-50% F) | 51 to 75 (≈ 23.8 to 34.9 µg/mL) | 1.28 | > 76 |  |  |  |
| C[C@H](C(N)=O)n1ccc2c(NC(=O)Cc3ccc(C(F)(F)F)cc3)c(Cl)ccc2c1=O [Compound 316, (R)-2-{6-Chloro-1-oxo-5-[2-(4-trifluoromethyl-phenyl)-acetylamino]-1H-isoquinolin-2-yl}-propionamide] |  | ++ (26-50% F) | < 25 | 3.25 |  |  |  | > 76 |
| C[C@H](CO)n1ccc2c(NC(=O)Cc3ccc(Cl)c(F)c3)cccc2c1=O [Compound 330, 2-(4-Chloro-3-fluorophenyl)-N-[2-((R)-2-hydroxy-1-methyl-ethyl)-1-oxo-1,2-dihydro-isoquinolin-5-yl]-acetamide] |  | ++++ (>75% F) | > 75 | 1.41 | > 76 |  |  |  |
| C[C@H](C(=O)Nc1cccc2c(=O)n([C@@H](C)C(N)=O)ccc12)c1ccc(Cl)cc1 [Compound 265] |  | ++ (26-50% F) | 26 to 50 (≈ 10.3 to 19.9 µg/mL) | 0.97 | > 76 |  |  |  |

Now from value to molecule, other results behind:

| inhibition at 0.3 µM (P2X7 receptor; 0.3 μM compound (symbols +), differentiated THP-1 cells, BzATP 250 uM, read-out: IL-1β % Inhib. @ 0.3 or 0.1 uM) [%] | Oral Bioavailability F (%) [1] | solubility [2] [µM] | half-life at 1 μM [3] [h] | inhibition at 0.3 µM (P2X7 receptor; [4]) [%] | inhibition at 0.3 µM (P2X7 receptor; differentiated THP-1 cells, BzATP 250 uM, "+" symbols = compound at 0.3 μM, read-out: IL-1β % Inhib. @ 0.3 or 0.1 uM) [%] | IC50 (P2X7 receptor; THP-1 cells, BzATP 250 uM, IL-1β by ELISA) [nM] | SMILES | inhibition at 0.3 µM (P2X7 receptor; THP-1, read-out: IL-1β % Inhib. @ 0.3 or 0.1 uM) [%] |
| --- | --- | --- | --- | --- | --- | --- | --- | --- |
|  | + (0-25% F) | < 25 | 2.36 | > 76 |  |  | C[C@@H](C(N)=O)n1ccc2c(NC(=O)Cc3ccc(C(F)(F)F)cc3)cccc2c1=O [Compound 351] |  |
|  | ++ (26-50% F) | > 75 | 3.73 |  | > 76 |  | Cc1ccc2c(=O)n(CCO)ccc2c1NC(=O)Cc1ccc(C(F)(F)F)c(F)c1 [Compound 400] |  |
|  | ++++ (>75% F) | < 25 | 1.54 | > 76 |  |  | O=C(Cc1ccc(C(F)(F)F)c(F)c1)Nc1cccc2c(=O)n(CCO)ccc12 [Compound 357] |  |
|  | ++ (26-50% F) | > 75 | 0.93 | > 76 |  |  | C[C@H](CO)n1ccc2c(NC(=O)Cc3ccc(C(F)(F)F)c(F)c3)cccc2c1=O [Compound 335] |  |
|  | ++ (26-50% F) | > 75 | 0.7 | > 76 |  | 5.54 | Cc1ccc2c(=O)n([C@H](C)CO)ccc2c1NC(=O)Cc1ccc(F)c(C(F)(F)F)c1 [Compound 394] |  |
|  | + (0-25% F) | < 25 | 1.01 | > 76 |  |  | C[C@@H](C(N)=O)n1ccc2c(NC(=O)Cc3ccc(Cl)c(C(F)(F)F)c3)cccc2c1=O [Compound 353] |  |
